Laboratory results: patent publication US20220023258A1, “METHODS OF TREATING CONDITIONS RELATED TO THE S1P1 RECEPTOR” (Arena Pharmaceuticals, Inc., priority 2018, published 2022)
“Also recorded” adds a separate entry of the source. Structures can show the parent of a compound that is named as a salt.

How the values were obtained:
healthy adult subjects = experiment: Multiple ascending dose study: safety and tolerability
Procedure: The following safety assessments were conducted: physical examinations with ophthalmoscopy, clinical laboratory tests (serum chemistry, coagulation, and urinalysis), vital signs, continuous telemetry (12 lead ECG), safety ECGs, pulmonary function testing (PFT), serum protein electrophoresis (SPEP) and serum immunoelectrophoresis (IEP), and adverse event reporting.

[1] = test system: patients with ulcerative colitis; experiment: Fecal calprotectin and C-reactive protein in ulcerative colitis study; assay type: in vivo, human
Procedure: The modified Mayo Clinic score (modified MCS) included endoscopic, rectal bleeding (RB), and stool frequency (SF) subscores. […] Endoscopic improvement was defined as a subscore ≤1. […] Comparisons between subgroups were assessed with a Wilcoxon rank-sum test (2-sided P values). Analysis of correlation between variables was conducted using the Spearman's rank coefficient (2-sided P values).

O=C(O)C[C@H]1CCc2c1[nH]c1ccc(OCc3ccc(C4CCCC4)c(C(F)(F)F)c3)cc21 [L-arginine salt of Compound 1]
mildly abnormal reproducible (NCS) pulmonary function test findings (FEV1 below 80%, FVC) post-dose (healthy adult subjects; 1.35 mg dose): One subject | subjects who developed new 1″ degree atrioventricular block (healthy adult subjects; 2 mg group): 1 subject | subjects with mildly abnormal post-treatment liver function tests (ALT & AST >2× ULN) (healthy adult subjects; 2 mg group): 1 subject | subjects who developed new 1″ degree atrioventricular block (healthy adult subjects; 0.5, 3 mg group): 1 subject | subjects with mildly abnormal post-treatment liver function tests (ALT & AST >2× ULN) (healthy adult subjects; 0.5 escalating to 3 mg group): 1 subject | SAEs or deaths (healthy adult subjects; all dose levels): No SAEs or deaths occurred | ophthalmoscopy findings (healthy adult subjects; all dose levels): No clinically significant change from baseline | other safety issues (vital signs, ECGs, PFTs, ophthalmoscopy, clinical laboratory tests) (healthy adult subjects; all dose levels): no other clinically significant safety issues | second degree heart block (healthy adult subjects; all dose levels): No second degree heart block was found | subjects discontinued due to an adverse event (healthy adult subjects; all dose levels): No subjects were discontinued due to an adverse event | most common adverse events (healthy adult subjects; all dose levels, 21 days): contact dermatitis and leukopenia, followed by constipation, diarrhea, nausea, and abdominal pain | severity of adverse events (healthy adult subjects; all dose levels, 21 days): majority of adverse events were mild | tolerability (healthy adult subjects; all dose levels, 21 days): tolerated at all dose levels; also recorded: well tolerated at all doses tested | decrease in FC versus placebo across the study ([1]; 1 mg, did not reach statistical significance, P=0.08): 0.71 | decrease in CRP compared with placebo across the study ([1]; 1 mg, mixed-model for repeat measures, P=0.02): 0.72 | median FC at week 12, patients who did not achieve remission ([1]; 2 mg): 1129 µg/g | median FC at week 12, patients who achieved remission ([1]; 2 mg, P<0.001 vs no remission): 62.0 µg/g | decrease in FC compared with placebo across the study ([1]; 2 mg, mixed-model for repeat measures, P<0.001): 0.42 | decrease in CRP compared with placebo across the study ([1]; 2 mg, mixed-model for repeat measures, P=0.01): 0.70 | time at which decreases in FC and CRP levels versus placebo were first observed ([1]; 2 mg, sustained through week 12): 4 week
